From patent US6593365B1, “Diflunisal esters and related compounds” (The University of Queensland, priority 1997, dated 2003) come the findings set out here.

In data set [1] the test system is human platelet rich plasma. The data set can be described thus: Platelet aggregation induced by arachidonic acid. The settings on record: compound 600 µM, 37° C., arachidonic acid 200 µM. Format: cell-based. The procedure, abridged:
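Citrated human PRP ([…]) preincubated with compound 3–45 min at 37 °C under stirring, then challenged with 200 µM arachidonic acid (final). Aggregation quantified as area under the turbidimetric curve; non-responding samples given 20 µM ADP to verify platelet viability.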

For data set [2], the system named is in-situ perfused rat liver. The data set can be described thus: In-situ rat liver perfusions, hepatic availability (Example 2). The settings on record: 30 mL/min, bolus. The class given is in vitro ADME. The protocol:
The hepatic availability (Fhepatic) for the O-acyl esters of the salicylic acid and diflunisal was determined using a once through in-situ perfused rat liver preparation (Mellick et al, Unpublished Results).
Protein-free Krebs-Henseleit buffer was perfused at 30 mL/min for aspiring analogues and 2% BSA in Krebs-Henseleit buffer for diflunisal esters (since the solubilities of these latter compounds in protein-free media were very low (Hung et al, supra), 2% BSA were used to increase their solubilities). Briefly, 50 μL aliquots of a saturated solution of the particular O-acyl salicylic acid or diflunisal in Krebs-Henseleit buffer (or with 2% BSA) was injected into the liver with perfusate outflow samples collected via a fraction collector over three minutes. Aliquots (100 μL) from the outflow samples were assayed by HPLC to determine the residual concentration of presented ester and the quantity of phenolic metabolite (salicylic acid or diflunisal) issuing from the perfused liver. The HPLC assay was a modification of the method used by Mellick & Roberts 1996 (Mellick et al, 1996, unpublished results).
The hepatic availability (F) was determined from the outflow concentration versus time profiles for the esters using equation 1, with the assistance of the Moments Calculator 2.2 program for Macintosh computer developed by Robert Purves.
where Q is the perfusate flow rate and D is the dose of aspirin analogues or diflunisal esters administered. The area under the concentration-time curve (AUC) was estimated by the trapezoidal rule integration with appropriate modification for tail (Mellick et al, supra).

The subject of data set [3] is OH. generated from Fenton's reaction. The experiment in a line: Luminol-dependent chemiluminescence induced by Fenton's reagent. Format: biochemical. More on the design: unit of the concentration uncertain. Conditions: F: CL induced by Fenton's reagent, n=3. The method, then: CL was measured with a luminometer (Model 1250; LKB Wallac, Finland) and recorded in millivolts (Cheung et al., 1984, supra).
Fenton's reagent (FeSO4 and H2O2) was used as a standard reaction mixture for the generation of OH. (Lai and Piette, 1979, Tetrahedron Lett. 775-778):
Fe^+++H2O2→Fe^++++OH.+OH (1)
The initial reaction mixture consisted of 20 μL of 3.8 mM FeSO4.7H2O, 20 μL of 5 mg/mL luminol (Sigma), and 2 mL of 1 mM phosphate buffer in a 3 mL polystyrene cuvette. Twenty microlitres of 320 mM H2O2 was added to initiate the Fenton's reaction.
A known concentration of the ethanolic (≲1%) aspirin analogue or diflunisal ester's stock solution was added to the 1 mM phosphate buffer to prepare solutions with a final concentration of 50 μM, 250 μM or 500 μM. Twenty microlitres of these test samples was added onto the cuvette which contained the initial reaction mixture. H2O2 was added to induce CL reaction. The luminol-dependent CL response was recorded in mV by a potentiometric recorder.
(§1) CL measurements were always done in triplicate and Student's t-test used to assess the statistical significance of the difference between measurements.

Data set [4] concerns superoxide generated from xanthine oxidase plus xanthine reaction. The data set can be described thus: Xanthine oxidase plus xanthine-induced chemiluminescence. Format: biochemical. Details: dose or concentration left out as unconfirmed. The settings on record: X: CL induced by xanthine oxidase plus xanthine. The method, then: To clarify the role of aspirin analogues and diflunisal esters in free radicals scavenging, the Fenton's reagent was replaced by an artificial superoxide generating system in the CL inhibition studies. This cell-free system consisted of 100 μg/mL of xanthine oxidase (Sigma) plus 0.5 μM xanthine (Sigma) (Rosen and Klebanoff, 1976, J Clin Invest 58 50-60; Cheson et al., 1976, J Clin Invest 58 789-796).
as §1

[5] abbreviates: 2% BSA in Krebs-Henseleit buffer as perfusate.
[6] abbreviates: 0.5 (unit uncertain) compound, U = undetectable.
Where [7] appears, read: protein-free Krebs-Henseleit buffer as perfusate.

In the case of `CCCCCC(=O)Oc1ccc(-c2ccc(F)cc2F)cc1C(=O)O` [Compound C6D, n-hexanoyldiflunisal], the “Platelet Aggregation (% of control)” value in data set [1] (preincubation 3 minutes) is listed as 97.2 ± 0.2 % of control; in data set [1] (preincubation 5 minutes), 94.7 ± 0.3 % of control; in data set [1] (preincubation 8 minutes) it was 93.3 ± 0.2 % of control; in data set [1] (preincubation 10 minutes), 90.1 ± 2.1 % of control; in data set [1] (preincubation 12 minutes), 89.3 ± 0.1 % of control; in data set [1] (preincubation 15 minutes) it was 71.7 ± 1.9 % of control. The results for the “Platelet Aggregation (% of control)” value in data set [1] (preincubation 20 minutes), in data set [1] (preincubation 25 minutes) and in data set [1] (preincubation 45 minutes) were 45.6 ± 0.5 % of control, 0 % of control and 0 % of control, respectively. The “Hepatic availability (F)” value in data set [2] (setting [5]) was 0.38. The “CL inhibition (%)” value worked out at 20.5 ± 4.6% in data set [3] (setting [6]), 54.8 ± 2.4% in data set [3] (2.5 (unit uncertain) compound), 92.7 ± 3.1% in data set [3] (5 (unit uncertain) compound) and 0.7 ± 0.1% in data set [4].

Consider `CC(=O)Oc1ccc(-c2ccc(F)cc2F)cc1C(=O)O` [Compound C2D, acetyldiflunisal], for which the “Platelet Aggregation (% of control)” value is on record as 92.3 ± 0.5 % of control in data set [1] (preincubation 3 minutes); 67.3 ± 0.9 % of control in data set [1] (preincubation 5 minutes); 27.9 ± 1.1 % of control in data set [1] (preincubation 8 minutes); 0 % of control in data set [1] (preincubation 10 minutes); 0 % of control in data set [1] (preincubation 12 minutes); 0 % of control in data set [1] (preincubation 15 minutes). Further, the “Platelet Aggregation (% of control)” value in data set [1] (preincubation 20 minutes), in data set [1] (preincubation 25 minutes) and in data set [1] (preincubation 45 minutes) was 0 % of control in each case. For the same molecule, the “Hepatic availability (F)” value in data set [2] (setting [5]) came to 0.21. Moreover, the “CL inhibition (%)” value in data set [3] (setting [6]) was 21.3 ± 5.0%; in data set [3] (2.5 (unit uncertain) compound), 49.8 ± 3.9%; in data set [3] (5 (unit uncertain) compound), 91.2 ± 0.6%; in data set [4], 0.5 ± 0.0%.

Regarding `CCCCC(=O)Oc1ccc(-c2ccc(F)cc2F)cc1C(=O)O` [Compound C5D, n-pentanoyldiflunisal], the “Platelet Aggregation (% of control)” value in data set [1] (preincubation 3 minutes) is given as 97.1 ± 0.1 % of control; in data set [1] (preincubation 5 minutes) it was 95.3 ± 0.7 % of control; in data set [1] (preincubation 8 minutes), 90.6 ± 0.9 % of control; in data set [1] (preincubation 10 minutes), 87.3 ± 3.1 % of control; in data set [1] (preincubation 12 minutes) it was 75.9 ± 0.1 % of control; in data set [1] (preincubation 15 minutes), 57.5 ± 1.7 % of control. For the same molecule, the “Platelet Aggregation (% of control)” value in data set [1] (preincubation 20 minutes), in data set [1] (preincubation 25 minutes) and in data set [1] (preincubation 45 minutes) was 0 % of control each time. Also, the “Hepatic availability (F)” value in data set [2] (setting [5]) is on record as 0.38. The “CL inhibition (%)” value is listed as 22.2 ± 7.1% in data set [3] (setting [6]), 58.2 ± 2.5% in data set [3] (2.5 (unit uncertain) compound), 88.8 ± 0.9% in data set [3] (5 (unit uncertain) compound) and 0.8 ± 0.0% in data set [4].

On to “O-acetylsalicylic acid [Compound C2SA, reference compound]”, for which the “Platelet Aggregation (% of control)” value in data set [1] (preincubation 3 minutes), in data set [1] (preincubation 5 minutes), in data set [1] (preincubation 8 minutes), in data set [1] (preincubation 10 minutes), in data set [1] (preincubation 12 minutes) and in data set [1] (preincubation 15 minutes) was 0 % of control in each case. The “Platelet Aggregation (% of control)” value in data set [1] (preincubation 20 minutes), in data set [1] (preincubation 25 minutes) and in data set [1] (preincubation 45 minutes) was 0 % of control each time. Besides, the “Hepatic availability (F)” value in data set [2] (setting [7]) stood at 0.85. Besides, the “CL inhibition (%)” value is listed as 43.3 ± 5.0% in data set [3] (2.5 (unit uncertain) compound), 97.6 ± 0.5% in data set [3] (5 (unit uncertain) compound) and 0.4 ± 0.1% in data set [4].

As for `CCCCCC(=O)Oc1ccccc1C(=O)O` [Compound C6SA, n-hexanoylsalicylic acid], the “Platelet Aggregation (% of control)” value is listed as 90.1 ± 2.2 % of control in data set [1] (preincubation 3 minutes); 70.5 ± 3.1 % of control in data set [1] (preincubation 5 minutes); 39.9 ± 1.1 % of control in data set [1] (preincubation 8 minutes); 0 % of control in data set [1] (preincubation 10 minutes); 0 % of control in data set [1] (preincubation 12 minutes); 0 % of control in data set [1] (preincubation 15 minutes). Moreover, the “Platelet Aggregation (% of control)” value in data set [1] (preincubation 20 minutes), in data set [1] (preincubation 25 minutes) and in data set [1] (preincubation 45 minutes) was 0 % of control throughout. Moreover, the “Hepatic availability (F)” value in data set [2] (setting [7]) worked out at 0.02. Further, the “CL inhibition (%)” value in data set [3] (setting [6]) stood at 0.2 ± 0.1%; in data set [3] (2.5 (unit uncertain) compound), 56.0 ± 3.7%; in data set [3] (5 (unit uncertain) compound) it was 96.0 ± 2.1%; in data set [4], 0.2 ± 0.0%.
